Consider seven molecules from publication PMC9603946, “On the Sensitivity of the Virion Envelope to Lipid Peroxidation” (Microbiology Spectrum, 2022).

“And” between values parts separate entries of the source, which are not always exact repeats. Identical values can stand only once. Like-named read-outs stand apart in the source and are kept apart here. Marks after values point to notes of the source that are not given here.

The CC50 is the concentration that lowers cell viability or growth by half. A low value points to harm at low concentration.

In data set [1] the test system is HSV-1. The format is cell-based, HSV-1 KOS. As to conditions: for protective effect on infectivity in atmospheric O2: substance alone, without BSA carrier; for drop of viral titers: after 2 h of incubation in atmospheric O2 at 37°C with the substance. The procedure: To test other oxidative conditions, an HSV-1 suspension was incubated in atmospheric oxygen at 37°C in DMEM without serum. The virions were incubated with the previously used antioxidants (vitamin E-BSA and vitamin C), vitamin E without the carrier, the BSA carrier alone, vitamin C-BSA, cholesterol (another compound with a conjugated ring and alkyl chains but with limited antioxidant activity), or cholesterol-BSA. A plaquing efficiency assay was then performed with the treated virions.
A time course plaquing efficiency assay was performed with HSV-1 incubated under atmospheric oxidative conditions. Virions (3 × 10^5 PFU) were incubated with vitamin E, vitamin E-BSA, cholesterol, cholesterol-BSA, vitamin C (10 μM final concentration), or the carrier BSA (0.5% final concentration) for 3 h at 37°C in a water bath with atmospheric air (atmospheric O2). Aliquots from each condition were taken every hour and diluted 1:200 to perform plaquing efficiency assays as previously described on the Vero cells.

The test system of data set [2] is Vero cells. As to the kind of experiment: Vero cell lipid peroxidation probed with liperfluo. Type of data set: cell-based, African green monkey. As to conditions: for EC50: Chlorocebus sabaeus, Vero, Liperfluo probe, read-out: CP50 (the source's name). The procedure:
(§1) The effects of peroxidators have been commonly evaluated against purified lipids and liposomes as a proxy, but they have not been evaluated against virions ([50], [53][–][55]). We instead directly evaluated the extent of virion lipid peroxidation.
To evaluate cell lipid peroxidation using liperfluo, 7.5 × 10^3 Vero cells were seeded into each well of 96-well plates and incubated for 18 h at 37°C in 5% CO2. […] Two hours later, the cells were washed twice, and the fluorescence was evaluated in a TECAN Infinite M200 Pro at 515 nm excitation and 545 nm emission.
(§2) To evaluate the effects of a lipid soluble antioxidant, cells or virions were preloaded with vitamin E-BSA for 3 h at 37°C. Vitamin E-BSA containing medium was removed, and the cells were washed twice with DMEM. Liperfluo (20 or 10 μM for cells or virions, respectively) or C11-Bodipy (1 μM for cells or 0.1 mol% for virions) were preloaded into the cells or virions for 30 min at 37°C.
(§3) To evaluate the effects of water soluble antioxidants, liperfluo (20 μM for cells or 10 μM for virions) or C11-Bodipy (1 μM for cells or 0.1 mol% for virions) were preloaded into the cells or virions for 30 min at 37°C. […] Fluorescence was evaluated in a TECAN Infinite M200 Pro at 515 nm excitation and 545 nm emission for liperfluo or at 550 nm excitation and 580 to 630 nm emission for C11-Bodipy.

In data set [3] the test system is Vero cells. As to the kind of experiment: Vero cell lipid peroxidation probed with C11-Bodipy. The format is cell-based, African green monkey. As to conditions: C11-Bodipy (Fig. 8). The procedure:
as §1
To evaluate Vero cell lipoperoxidation with C11-Bodipy, 7.5 × 10^3 cells were seeded into each well of 96-well plates and incubated for 18 h at 37°C in 5% CO2 before preloading them with 1 μM C11-Bodipy for 30 min at 37°C. […] Two hours later, the cells were washed twice and lysed with DMSO:isopropanol. Fluorescence was evaluated in a TECAN Infinite M200 Pro at 550 nm excitation and 580 to 630 nm emission with the reading peak at 600 nm.
as §2, §3

The nature of data set [4]: HFF cell viability after 2 h exposure to lipoperoxidators (CellTiter-Glo). The settings on record: human, HFF cells. The procedure: (§4) The cells were washed twice with warm DMEM before a 100 μL lipoperoxidator solution was transferred with a multichannel pipette from the plate containing the drug dilutions in technical triplicates. The cells were incubated with peroxidators for 2 h at 37°C. Then, the medium was removed, and the cells were washed twice with DMEM at 37°C. The plates were cooled down to RT, and the medium was removed. Then, 50 μL phenol red free DMEM and 50 μL CellTiter-glo Luminiscent Cell Viability Assay (Promega, G7571/2/3) were added and mixed in an orbital shaker for 2 min. Afterwards, 80 μL of the mix was transferred onto white 96-well plates and incubated for 10 min at RT for signal stabilization. The luminescence was read in the Glomax Multidetection System (Promega) with an integration time of 0.5 s.
(§5) The means of the technical triplicates were normalized to the means of the vehicle controls, analyzed via nonlinear regression dose responses, and graphed using GraphPad Prism 9.0. Three or four independent biological replicates were performed for each treatment (n = 3 or 4).
(§6) To evaluate the effects of lipid soluble antioxidants, 10 μM vitamin E was loaded onto carrier 1% BSA in the dark for 4.5 h at RT. The cells were washed twice with DMEM at 37°C and preloaded with 100 μL of 10 μM vitamin E in BSA carrier for 3 h at 37°C. The cells were washed twice again before the addition of any lipoperoxidators. Peroxidators were then added to the cells at working concentrations and incubated for 2 h at 37°C. The peroxidation solution was then removed, and the cells were washed twice with DMEM before analyzing viability. To evaluate the effects of a water soluble antioxidant, the cells were treated with 10 μM vitamin C (final concentration) simultaneously with the lipoperoxidators.
In general terms: Cellular ATP, detected with luciferase, serves as a proxy for viable cell number.

Another data set concerns HFF cells. The description is as above. The settings on record: HFF. The procedure:
as §4, §5, §6

Data set [5] concerns HSV-1. As to the kind of experiment: HSV-1 virion infectivity (plaquing efficiency) on HFF cells after virion pretreatment. As to conditions: for EC50: Human alphaherpesvirus 1, HFF. The procedure: (§7) The inocula were removed, and the cells were washed and then incubated at 37°C in 5% CO2 until plaques were visible and well-resolved (about 2 days), at which time they were fixed and stained with crystal violet.
(§8) HSV-1 suspensions of 20,000 plaque PFU in 250 μL DMEM were mixed 1:1 with 2-fold serial dilutions of the general peroxidators and were incubated in a water bath for 2 h at 37°C. Next, treated virions were diluted 1:100 before being adsorbed onto cells for 1 h at 37°C. The inocula were removed, and the cells were washed twice with cold DMEM. Infected cells were overlaid with DMEM supplemented with 2% (Vero) or 1% (HFF) methylcellulose and 5% FBS and were incubated at 37°C until plaques were visible and well-resolved, typically in about 2 days. Cell monolayers were fixed and stained with 1% crystal violet in 17% methanol for 18 h at RT. The cells were washed, and the plaques were counted and normalized to those produced by the vehicle treated virions.
(§9) To test the effects of lipid soluble antioxidants on virions, 10 μM vitamin E loaded onto 1% carrier BSA in the dark for 4.5 h at RT was incubated with 10^6 HSV-1 virions for 3 h at 37°C. […] The treated virions were diluted 1:100 before infecting cells. […] The mix was incubated for 2 h at 37°C, diluted 1:100, and used to infect cells. The infectivity of an aliquot of treated virions was tested via a plaque assay.

Data set [6] concerns HSV-1 virions. As to the kind of experiment: HSV-1 virion lipid peroxidation probed with C11-Bodipy. Details: species or system HSV-1 KOS. As to conditions: C11-Bodipy (Fig. 8). The procedure: as §1
To evaluate virion lipoperoxidation with C11-Bodipy, 50 μL DMEM containing 5 × 10^6 PFU of HSV-1 was added into each well of 96-well plates. Virions were then preloaded with 0.1 mol % of C11-Bodipy for 30 min at 37°C. […] Fluorescence was evaluated in a TECAN Infinite M200 Pro at 550 nm excitation and 580 to 630 nm emission with the reading peak at 600 nm.
as §2, §3

The test system of data set [7] is HSV-1. As to the kind of experiment: HSV-1 virion infectivity (plaquing efficiency) on Vero cells after virion pretreatment. As to conditions: for EC50: Human alphaherpesvirus 1, Vero. The procedure:
as §7, §8, §9

The test system of data set [8] is HSV-1 virions. In words: microbe, parasite or virus in culture. Details: species or system HSV-1 KOS. As to conditions: virions, at higher AAPH concentrations. The procedure: as §1
To evaluate virion peroxidation using liperfluo, 50 μL DMEM that contained 5 × 10^6 PFU of HSV-1 was added to 96-well plates. Virions were then preloaded with 10 μM liperfluo for 20 min at 37°C. […] Fluorescence was evaluated in a TECAN Infinite M200 Pro at 515 nm excitation and 545 nm emission. Medium containing no virus was used as blank.
as §2, §3

Data set [9] in a line: Vero cell viability after 2 h exposure to lipoperoxidators (CellTiter-Glo). As to conditions: African green monkey, Vero cells, CC50, Vero. The procedure: as §4, §5, §6
Data set [10] has as its system Vero cells. The data set is described as above. As to conditions: Vero. The procedure:
as §4, §5, §6

In the next data set the test system is enveloped viruses. As to conditions: cited from earlier work.
The conditions of data set [11]: many months of exposure to light at room temperature; no reference given; cited from earlier work.

Consider `CC(C)CCC[C@@H](C)[C@H]1CC[C@H]2[C@@H]3CC=C4C[C@@H](O)CC[C@]4(C)[C@H]3CC[C@]12C` [cholesterol], for which the “protective effect on infectivity in atmospheric O2” value in the data set on HSV-1 [1] is reported as “no protective effects”.

In the case of `CC(C)(N=NC(C)(C)C(=N)N)C(=N)N.Cl.Cl` [AAPH, 2,2′-azobis(2-methylpropionamidine) dihydrochloride], the EC50 in the data set on Vero cells [2] (no antioxidant) came out at 89.2 mM; in the data set with Vero cells [2] (vitamin C) it was 90.7 mM; in the data set on Vero cells [2] (vitamin E), 90.7 mM; with HSV-1 [5] (2 h, no antioxidant, virions treated 2 h at 37°C) it was 24.7 mM; in the data set on HSV-1 [5] (virions preloaded with vitamin E (10 μM, BSA carrier)), 31.4 mM; with HSV-1 [7] (2 h, Vero, no antioxidant, virions treated 2 h at 37°C), 20.8 mM. The EC50 in the data set with HSV-1 [7] (Vero, virions preloaded with vitamin E (10 μM, BSA carrier)) was 31 mM. In addition, the “level of lipoperoxidation detected by liperfluo” value in the data set with Vero cells [2] (cells, at higher AAPH concentrations) is reported as less than 2 AU; with HSV-1 virions [8] it was less than 2 AU. The “lowest concentration affecting cell lipid peroxidation” value with Vero cells [3] was 50 to 100 mM. In addition, the CC50 at 2 h in data set [4] came out at 96.7 mM; in data set [9] (no antioxidant, 2 h at 37°C), 69 mM; in [9] (with vitamin C (10 μM)) it was 88.4 mM. Further, the “PI, CC50 (antioxidant)/CC50” value in the data set on HFF cells (vitamin C) was 1.1; in the data set with HFF cells (vitamin E) it was 0.5 ^*; in the data set with Vero cells [10] (vitamin C), 1.3; in the data set on Vero cells [10] (vitamin E), 2.0 ^*. Moreover, the “concentration giving a loss of infectivity of about 30%” value in the data set on HSV-1 [5] (2 h at 37°C) is reported as 12.5 mM; in the data set on HSV-1 [7] (Vero, 2 h at 37°C), 25 mM. The “SI, CC50/EC50” value with HSV-1 [5] (vitamin C) is reported as 1.7; with HSV-1 [5] (vitamin E), 3.1; with HSV-1 [7] (Vero, vitamin C), 0.9; in the data set with HSV-1 [7] (Vero, vitamin E) it was 4.4. Also, the “minimum inhibitory concentration (MIC) that decreased infectivity in the presence of vitamin C” value in the data set on HSV-1 [5] (vitamin C) is reported as 100 mM; with HSV-1 [7] (Vero, vitamin C) it was 50 mM. The “lowest concentration affecting virion peroxidation” value in the data set with HSV-1 virions [6] amounted to 200 mM. Moreover, the “concentration of maximal inhibition of virion infectivity” value in the data set with HSV-1 [7] (Vero) amounted to 100 mM. The “lowest concentration that decreased virion infectivity in the presence of BSA” value in the data set with HSV-1 [7] (Vero, with BSA) is given as 50 mM. The “lowest effective concentration on infectivity in the presence of the antioxidants” value with HSV-1 [7] (Vero, with antioxidants) was 25 mM. Also, the “concentration of maximal inhibition of cell viability” value in the data set on Vero cells [10] was 400000 µM. The “lowest concentration that reduced cell viability” value in the data set on Vero cells [10] was 12.5 mM and 25 mM.

Turning to bovine serum albumin [BSA], the “drop of viral titers” value with HSV-1 [1] is “about 30%”. The “protection of virion infectivity” value in the data set with HSV-1 [1] (after 3 h of incubation in atmospheric O2) is “about 30%”.

Regarding `O=C1O[C@H]([C@@H](O)CO)C(O)=C1O` [vitamin C, L-ascorbic acid], the “drop of viral titers” value with HSV-1 [1] is on record as “about 30%”.

`C=CCN1C(=O)/C(=C/c2ccc(-c3ccccc3)o2)SC1=S` [LJ001]: the “fold over antiviral concentrations at which not cytotoxic” value in the data set on enveloped viruses is no less than 100 fold.

For `Cc1c(C)c2c(c(C)c1O)CC[C@@](C)(CCC[C@H](C)CCC[C@H](C)CCCC(C)C)O2` [vitamin E, alpha tocopherol], the “protective effect on infectivity in atmospheric O2” value with HSV-1 [1] is on record as “no protective effects”. Moreover, the “protection of HSV-1 infectivity against the water soluble peroxidator” value with HSV-1 [7] (Vero and HFF (Fig. 5B and F), vitamin E preloading) was “did not protect”.

For the molecule `O=c1[nH]c(=O)n([C@@H]2O[C@H](CO)[C@@H](O)[C@@H]2O)cc1C#Cc1ccc2c3cccc4cccc(c5cccc1c52)c43` [aUY11, 5-(Perylen-3-yl) ethynyl-arabino-uridine], the “inactivation by light exposure” value in [11] is given as “not inactivated”.
